The results in this text go back to US9718813B2, “Imidazolin-5-one derivative useful as FASN inhibitors for the treatment of cancer” (Janssen Pharmaceutica, NV, priority 2013, dated 2017).

Assay [1] deals with hFASN enzyme (full length) (Homo sapiens (Human), UniProt P49327). Kind of assay: Fatty Acid Synthase (FASN) Inhibition Scintillation Proximity Assay. The conditions noted are these: 3H-acetyl-CoA and malonyl-CoA substrates, SPA, mean if tested more than once. It is filed as biochemical. The gist of the method:
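Full-length human FASN (300 ng, in-house purified) in 100 mM KH2PO4 pH 7.5, 1 mM DTT converts 3H-acetyl-CoA plus malonyl-CoA to hydrophobic 3H-palmitate, captured by streptavidin imaging beads and read on LEADseeker at 610 nm after ≥24 h. Compounds tested 0.01–30 μM; data normalized to plate controls and fitted to 4-parameter logistic curves.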
In general terms: In a scintillation proximity assay essentially only radioactivity close to the scintillant gives light.

Assay [2] deals with FASN Keto-reductase Domain (hFASN enzyme, full length) (Homo sapiens (Human), UniProt P49327). Kind of assay: Fatty Acid Synthase Keto-reductase Domain (FASN KR) Inhibition. It is filed as biochemical. The conditions noted are these: NADPH oxidation at 340 nm, ethyl acetoacetate substrate. The procedure, abridged:
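Absorbance was read before (T1) and after 20 min incubation at room temperature (T2), with the decrease T1−T2 as signal. Data were normalized to plate high and low controls as % Controlmin; IC50 came from a 4-parameter logistic fit of Controlmin versus compound concentration.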

The test system of assay [3] is LNCaP_Vancouver prostate cells. The assay can be described thus: In Vitro LNCaP Vancouver Prostate Cell Proliferation Assay in Lipid Reduced Medium. As to conditions: 96 h, 10% lipid reduced serum, ATP-glow. Format: cell-based. Here is the method: LNCaP_Vancouver prostate cells were obtained from the Vancouver Prostate Cancer Centre.
Compounds were tested in duplicate. After 96 h incubation at 37° C., 5% CO2 25 μl ATP-glow mix was added. The plate was incubated for 30 min at 37° C. and luminescence was measured with the Envision.
(§1) pIC50 values were calculated as follows. Raw data generated by the instruments were normalized to % Controlmin values, which were calculated as: % Controlmin=100*(x−mLC)/(mHC−mLC),
(§2) where mLC and mHC are the means of the low control wells and high control wells on the plate, after manual exclusion of outliers. The relation between the % Controlmin values and concentration was fitted to a 4-parameter logistic curve using a non-linear least squares regression method to determine the pIC50 value. Outlying data points were excluded manually to get a correct fit. […] The IC50 parameter was always determined by non-linear regression, but one or more of the other parameters may have been held fixed on a relevant input value, such as 0 for the bottom values.

For assay [4], the system named is PC-3M-Luc-C6 prostate cells. Kind of assay: In Vitro PC-3M-Luc-C6 Prostate Cell Proliferation Assay in Lipid Reduced Medium. As to conditions: 96 h. Format: cell-based. Here is the method: PC-3M-Luc-C6 prostate cells were obtained from Xenogen Corporation. […] The cells were passaged twice a week.
The next day 10 μl test compound/DMSO diluted in medium was added (3E-5M, 1E-5M, 3E-6M, 1E-6M, 3E-7M, 1E-7M, 3E-8M, 1E-8M final concentration). Compounds were tested in duplicate. After 96 h incubation at 37° C., 5% CO2 25 μl ATP-glow mix was added. The plate was incubated for 30 min at 37° C. and luminescence was measured with the Envision.
as §1, §2

The subject of assay [5] is A2780 ovarian cells. Kind of assay: A2780 Ovarian Cell Proliferation Assay in Lipid Reduced Medium, with Palmitate. Format: cell-based. The conditions noted are these: 10% lipid-reduced serum, 25 μM palmitate, 96 h, MTT; for IC50: Homo sapiens, read-out: pIC50 With Palmitate (converted). Here is the method:
(§3) The biological assays described below correspond to comparative assays for ovarian cell proliferation.
2500 cells were seeded in a 96-well clear well plate in 200 μL RPM11640 with 10% Fetal Calf Serum (Hyclone), and incubated at 37° C., 5% CO2. Blanks were wells without cells. The next day the culture medium was aspirated and replaced by 160 μL culture medium with 10% Lipid-Reduced Serum (LRS, Hyclone). […] After 96 h incubation, an MTT assay was performed.

Assay [6] deals with A2780 ovarian cells. The assay can be described thus: A2780 Ovarian Cell Proliferation Assay in Lipid Reduced Medium, without Palmitate. As to conditions: 10% lipid-reduced serum, no palmitate, 96 h, MTT. Format: cell-based. Here is the method: as §3
2500 cells were seeded in a 96-well clear well plate in 200 μL RPM11640 with 10% Fetal Calf Serum (Hyclone), and incubated at 37° C., 5% CO2. Blanks were wells without cells. The next day the culture medium was aspirated and replaced by 160 μL culture medium with 10% Lipid-Reduced Serum (LRS, Hyclone). 20 μL test compound (at concentrations of 30 μM, 10 μM, 3 μM, 1 μM, 0.30 μM, 0.10 μM, 0.03 μM and 0.01 μM)/DMSO dilution followed by 20 μL ethanol-BSA solution were added to a final concentrations of 0.2% DMSO, 0.2% fatty-acid-free BSA, 0.25% ethanol. After 96 h incubation an MTT assay was performed.
Raw data generated by the instrument were normalized to % Controlmin values, which were calculated as: % Controlmin=100*(x−mLC)/(mHC−mLC)
where mLC and mHC were the means of the low control wells and high control wells on the plate, after manual exclusion of outliers. A plot of Controlmin versus test compound concentration was fitted to a 4-parameter logistic curve using a non-linear least squares regression method.

Molecules are shown by their SMILES.

Sequence of FASN Keto-reductase Domain (hFASN enzyme, full length) (P49327 whole entry, the tested form may be a part): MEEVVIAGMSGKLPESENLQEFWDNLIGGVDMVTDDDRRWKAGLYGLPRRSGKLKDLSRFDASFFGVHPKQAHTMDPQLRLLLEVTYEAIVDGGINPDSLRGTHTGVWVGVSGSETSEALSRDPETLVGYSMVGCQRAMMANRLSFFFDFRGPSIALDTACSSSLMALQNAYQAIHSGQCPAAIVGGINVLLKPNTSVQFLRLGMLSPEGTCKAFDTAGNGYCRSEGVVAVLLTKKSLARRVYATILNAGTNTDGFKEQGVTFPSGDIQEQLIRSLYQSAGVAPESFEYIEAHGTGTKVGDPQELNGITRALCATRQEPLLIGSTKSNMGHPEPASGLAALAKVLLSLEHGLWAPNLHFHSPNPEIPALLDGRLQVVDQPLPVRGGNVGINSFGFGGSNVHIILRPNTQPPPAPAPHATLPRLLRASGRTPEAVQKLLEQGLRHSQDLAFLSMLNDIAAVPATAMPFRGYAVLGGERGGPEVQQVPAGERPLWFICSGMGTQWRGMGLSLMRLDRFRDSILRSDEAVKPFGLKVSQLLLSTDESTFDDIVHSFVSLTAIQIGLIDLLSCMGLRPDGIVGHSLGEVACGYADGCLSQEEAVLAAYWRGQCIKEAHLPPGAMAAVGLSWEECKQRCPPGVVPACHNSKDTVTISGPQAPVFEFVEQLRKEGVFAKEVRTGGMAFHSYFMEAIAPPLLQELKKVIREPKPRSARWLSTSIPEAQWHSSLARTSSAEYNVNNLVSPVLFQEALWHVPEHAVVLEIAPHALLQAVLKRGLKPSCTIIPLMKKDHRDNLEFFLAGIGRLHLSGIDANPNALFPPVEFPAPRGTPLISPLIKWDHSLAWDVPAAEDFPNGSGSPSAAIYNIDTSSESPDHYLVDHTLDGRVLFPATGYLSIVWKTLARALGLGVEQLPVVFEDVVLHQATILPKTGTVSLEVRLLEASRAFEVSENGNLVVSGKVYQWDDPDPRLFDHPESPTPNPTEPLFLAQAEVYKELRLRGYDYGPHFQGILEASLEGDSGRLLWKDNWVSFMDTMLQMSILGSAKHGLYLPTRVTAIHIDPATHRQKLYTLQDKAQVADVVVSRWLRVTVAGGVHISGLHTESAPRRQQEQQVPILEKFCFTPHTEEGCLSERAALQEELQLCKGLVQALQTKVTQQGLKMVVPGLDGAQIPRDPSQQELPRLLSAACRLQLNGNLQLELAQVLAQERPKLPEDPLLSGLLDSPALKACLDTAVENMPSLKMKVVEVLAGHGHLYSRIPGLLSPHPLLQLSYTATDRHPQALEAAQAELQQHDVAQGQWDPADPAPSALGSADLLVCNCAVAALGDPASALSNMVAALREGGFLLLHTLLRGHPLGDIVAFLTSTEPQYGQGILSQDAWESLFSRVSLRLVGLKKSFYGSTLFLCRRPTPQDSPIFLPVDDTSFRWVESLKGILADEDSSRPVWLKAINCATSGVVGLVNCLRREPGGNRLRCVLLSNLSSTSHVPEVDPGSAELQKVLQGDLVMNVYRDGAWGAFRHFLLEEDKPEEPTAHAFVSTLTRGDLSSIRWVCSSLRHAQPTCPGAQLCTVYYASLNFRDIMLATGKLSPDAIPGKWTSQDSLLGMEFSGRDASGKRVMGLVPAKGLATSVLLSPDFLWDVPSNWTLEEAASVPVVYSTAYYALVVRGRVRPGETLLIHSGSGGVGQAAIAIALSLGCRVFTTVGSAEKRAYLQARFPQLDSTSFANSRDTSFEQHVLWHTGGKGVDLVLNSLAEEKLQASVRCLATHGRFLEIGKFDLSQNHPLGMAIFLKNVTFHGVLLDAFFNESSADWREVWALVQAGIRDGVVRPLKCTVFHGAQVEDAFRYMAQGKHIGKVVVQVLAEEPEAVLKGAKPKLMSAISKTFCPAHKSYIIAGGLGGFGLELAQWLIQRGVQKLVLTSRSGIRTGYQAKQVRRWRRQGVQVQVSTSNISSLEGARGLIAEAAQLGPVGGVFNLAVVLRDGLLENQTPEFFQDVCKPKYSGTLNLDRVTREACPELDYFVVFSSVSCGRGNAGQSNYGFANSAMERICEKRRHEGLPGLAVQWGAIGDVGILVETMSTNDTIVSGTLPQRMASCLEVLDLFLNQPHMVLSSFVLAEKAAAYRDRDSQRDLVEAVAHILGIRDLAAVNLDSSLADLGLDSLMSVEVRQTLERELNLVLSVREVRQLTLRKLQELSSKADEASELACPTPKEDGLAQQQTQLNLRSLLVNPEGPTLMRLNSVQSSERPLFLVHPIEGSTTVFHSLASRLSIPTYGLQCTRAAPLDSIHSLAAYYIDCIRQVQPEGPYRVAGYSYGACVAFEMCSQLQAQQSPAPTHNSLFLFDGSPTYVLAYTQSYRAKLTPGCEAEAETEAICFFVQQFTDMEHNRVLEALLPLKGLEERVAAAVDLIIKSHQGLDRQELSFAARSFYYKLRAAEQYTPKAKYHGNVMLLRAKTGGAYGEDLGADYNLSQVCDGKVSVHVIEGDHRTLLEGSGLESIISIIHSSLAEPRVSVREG
Sequence of hFASN enzyme (full length) (P49327 whole entry): as the sequence (P49327 whole entry, the tested form may be a part) above

Regarding `CC1(C)N=C(c2ccc(-c3ccc4cncnc4c3)cc2F)N(CC2CN(C(=O)C3CC3)C2)C1=O` [Compound 43, 1-((1-(cyclopropanecarbonyl)azetidin-3-yl)methyl)-2-(2-fluoro-4-(quinazolin-7-yl)phenyl)-4,4-dimethyl-1H-imidazol-5(4H)-one], the “Human FASN pIC50” value in assay [1] was determined as 6.11. The “FASN Keto-reductase Domain pIC50” value in assay [2] was determined as 5.93. In addition, the IC50 is 2.34 µM in assay [3] (Prostate cell, read-out: pIC50 LNCaP_Vancouver prostate cell (converted)) and 0.871 µM in assay [4] (Prostate cell, read-out: pIC50 PC-3M-Luc-C6 prostate cell, 10% lipid reduced serum, 96 h, ATP-glow (converted)).
In the case of `CC1(C)N=C(c2ccc(-c3ccc4cc(F)ccc4c3)cc2F)N(C[C@@H]2CCN(C(=O)C3CC3)C2)C1=O` [Compound 66, (R)-1-((1-(cyclopropanecarbonyl)pyrrolidin-3-yl)methyl)-2-(2-fluoro-4-(6-fluoronaphthalen-2-yl)phenyl)-4,4-dimethyl-1H-imidazol-5(4H)-one], in assay [1], the “Human FASN pIC50” value is given as 7.48. Further, the “FASN Keto-reductase Domain pIC50” value in assay [2] is 7.28. For the same molecule, in the assay with A2780 ovarian cells [5], the IC50 was over 10 µM.
Turning to `CC1(C)N=C(c2ccc(-c3ccc4cccc(F)c4c3)cc2F)N(C[C@@H]2CCN(C(=O)C3CC3)C2)C1=O` [Compound 67, (R)-1-((1-(cyclopropanecarbonyl)pyrrolidin-3-yl)methyl)-2-(2-fluoro-4-(8-fluoronaphthalen-2-yl)phenyl)-4,4-dimethyl-1H-imidazol-5(4H)-one], the IC50 in the assay with A2780 ovarian cells [5] was over 10 µM.
Regarding `CC1(C)N=C(c2ccc(-c3ccc4cnccc4c3)cc2F)N(C[C@@H]2CCN(C(=O)C3CC3)C2)C1=O` [Compound 68, (R)-1-((1-(cyclopropanecarbonyl)pyrrolidin-3-yl)methyl)-2-(2-fluoro-4-(isoquinolin-6-yl)phenyl)-4,4-dimethyl-1H-imidazol-5(4H)-one], the “Human FASN pIC50” value in assay [1] came out at 7.26. The “FASN Keto-reductase Domain pIC50” value in assay [2] came to 7.32. Besides, the IC50 with A2780 ovarian cells [5] is over 10 µM.
Take `Cn1ncc2cc(-c3ccc(C4=NC(C)(C)C(=O)N4CC4CN(C(=O)C5CC5)C4)c(F)c3)ccc21` [Compound 69, 1-((1-(cyclopropanecarbonyl)azetidin-3-yl)methyl)-2-(2-fluoro-4-(1-methyl-1H-indazol-5-yl)phenyl)-4,4-dimethyl-1H-imidazol-5(4H)-one]: the “pIC50 LNCaP_Vancouver prostate cell” value in assay [3] is listed as 6.87. In assay [4] (10% lipid reduced serum, ATP-glow), the “pIC50 PC-3M-Luc-C6 prostate cell” value is recorded as 7.04. Also, in the assay on A2780 ovarian cells [6], the “pIC50 Without Palmitate” value worked out at 7.19. In the assay on A2780 ovarian cells [5], the “pIC50 With Palmitate” value is listed as under 5.
Consider `Cc1cc(-c2ccc3cc(F)ccc3c2)ccc1C1=NC(C)(C)C(=O)N1C[C@@H]1CCN(C(=O)C2(C)CC2)C1` [Compound 86, (R)-2-(4-(6-fluoronaphthalen-2-yl)-2-methylphenyl)-4,4-dimethyl-1-((1-(1-methylcyclopropanecarbonyl)pyrrolidin-3-yl)methyl)-1H-imidazol-5(4H)-one], for which the “Human FASN pIC50” value in assay [1] is reported as 7.37. In addition, the “FASN Keto-reductase Domain pIC50” value in assay [2] was 7.60.
As for `Cc1cc(-c2ccc(-c3cnn(C)c3)cc2)ccc1C1=NC(C)(C)C(=O)N1CC1CN(C(=O)C2(C)CC2)C1` [Compound 87, 4,4-dimethyl-2-(3-methyl-4′-(1-methyl-1H-pyrazol-4-yl)-[1,1′-biphenyl]-4-yl)-1-((1-(1-methylcyclopropanecarbonyl)azetidin-3-yl)methyl)-1H-imidazol-5(4H)-one], the “Human FASN pIC50” value in assay [1] was 7.12. In addition, in assay [2], the “FASN Keto-reductase Domain pIC50” value came out at 7.06.
